In BindingDB's records for doi:10.1016/S0960-894X(01)80136-0 (1994):

Assay: Apparent inhibition constant of the FKBP […] isomerase (PPIase) activity

Compound	Ki [µM]
CC1(C)COC(=O)CCCCCCCCCOC(=O)[C@@H]2CCCCN2C(=O)C1=O	30
CC1(C)COC(=O)CCCCCCCCCCCCCCCOC(=O)C2CCCCN2C(=O)C1=O (stereo not given) [7,7-Dimethyl-icosahydro-9,26-dioxa-4a-aza-benzocyclopentacosene-5,6,10,27-tetraone]	11000
CC1(C)COC(=O)CCCCCCCCCCC(CCC2CCCCC2)OC(=O)C2CCCCN2C(=O)C1=O (stereo not given) [21-(2-Cyclohexyl-ethyl)-7,7-dimethyl-hexadecahydro-9,22-dioxa-4a-aza-benzocyclohenicosene-5,6,10,23-tetraone]	190

Further lines, results first:

Ki [µM]	Compound
2900	CC1(C)COC(=O)CCCOC(=O)C2CCCCN2C(=O)C1=O (stereo not given) [7,7-Dimethyl-octahydro-9,14-dioxa-4a-aza-benzocyclotridecene-5,6,10,15-tetraone]
90	CC1(C)COC(=O)CCCCCCCCCOC(=O)C2CCCCN2C(=O)C1=O (stereo not given) [7,7-Dimethyl-tetradecahydro-9,20-dioxa-4a-aza-benzocyclononadecene-5,6,10,21-tetraone]
